pEC50, pIC50: −log10 of the molar value. Entries after “also recorded” stand apart in the source; their conditions may differ.
How the values were obtained:
[1] = target: T1, recombinant 14-3-3ζ (Homo sapiens, UniProt P63104); experiment: 14-3-3 phosphorylation assay (PKA, in vitro); assay type: biochemical
T1 construct: 0.5 μg of purified recombinant 14-3-3
T1 sequence (P63104 1-245): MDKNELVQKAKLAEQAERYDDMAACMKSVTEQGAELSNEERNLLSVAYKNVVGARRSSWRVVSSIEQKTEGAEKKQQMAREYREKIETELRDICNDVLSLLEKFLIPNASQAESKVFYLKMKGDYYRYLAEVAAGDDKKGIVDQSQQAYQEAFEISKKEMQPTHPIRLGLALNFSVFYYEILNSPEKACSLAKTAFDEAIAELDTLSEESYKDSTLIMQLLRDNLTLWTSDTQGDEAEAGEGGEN
Description: (§1) Substrate 14-3-3 (0.5 μg of purified recombinant 14-3-3) was added to 15 μl reaction mixture comprising 0.2 U of the PKA catalytic subunit, in the presence or absence of compounds (delivered in 0.1% v/v ethanol) in PKA reaction buffer (10 mM Tris-HCl pH 7.4, 15 mM MgCl2, 3 mM DTT) containing 25 μM ATP and 0.3 μCi [^32P] 7-ATP). Reactions were incubated at 37° C. for 15 min. After incubation, reactions were separated on 12.5% SDS-PAGE, coomassie stained and 14-3-3 phosphorylation analysed by autoradiography.

[2] = test system: recombinant 14-3-3ζ; experiment: 14-3-3 phosphorylation assay (PKA, in vitro); assay type: biochemical; details: S58A versus Wt recombinant 14-3-3
Description: as §1

[3] = test system: Jurkat cells; experiment: Jurkat apoptosis assays (TMRE, caspase 3, Annexin V, viability by flow cytometry); assay type: cell-based
Description: (§2) Jurkat cells were routinely set up in apoptosis assays at 2×10^5/ml in RPMI with 0.5% FBS. After treatment, cells were stained either with 200 nM TMRE, 5 μl/ml NucView™ (Biotium), or Annexin V-FITC (Roche) for 15 mins prior to analysis by flow cytometry. Forward- and side-scatter properties were used to exclude debris and a ‘viable’ gate corresponding to the intact, PI negative cell population was used for fluorescence analysis. For A549, cells at 90% confluency were treated with RB compounds for 48 hrs in DMEM with 0.5% FBS. After treatment, cells were released with trypsin and then stained with NucView™ prior to analysis by flow cytometry.

[4] = test system: Jurkat cells over-expressing Bcl-2; experiment: Apoptosis assays in Jurkat cells over-expressing Bcl-2; assay type: cell-based; details: 5 μM, 20 hours
Description: Jurkat cells were obtained from the ATCC and A549 cell lines from ECACC. Jurkat cells were routinely cultured in RPMI with 10% FBS and A549 cells in DMEM with 10% FBS at 37° C. with 5% CO2 Jurkat Bcl-2 cells were generated by lentiviral transduction using a third generation lentiviral construct, as described previously (10) containing a Bcl-2α-IRES-IL2Rα encoding cassette. Transduced cells were FACS sorted for expression of IL2Rα using anti-CD25-PE (BD Pharmingen #555433) to enrich for Bcl-2 over-expressing cells and protein expression was further confirmed by immunoblotting with anti-Bcl-2 antibody (#610538; BD Transduction Laboratories, data not shown).
as §2

[5] = reported value; cited from earlier work
[6] = test system: A549 cells; experiment: A549 cell viability by MTS assay; assay type: cell-based, human; details: 48 hrs treatment
Description: A549 cells (2500/well) were plated in 96 well trays in DMEM with 0.5% FBS and cultured at 37° C. with 5% CO2 overnight. The following day RB compounds were added and cells incubated for a further 48 hours prior to removal of the medium and replacement with MTS reagent diluted 1:6 in Dulbecco's PBS. The cells were incubated at 37° C. for a further 4 hours and the conversion of MTS to the coloured formazan compound determined by measurement of absorbance at 490 nm.

[7] = test system: A549 cells; experiment: A549 caspase-3 activation (NucView, flow cytometry); assay type: cell-based, human; details: 48 hrs treatment
Description: as §2

[8] = test system: incisional wounds of dorsal skin; experiment: Incisional wound healing model; assay type: in vivo, mice
Description: A murine model of wound healing was utilised. In this model, 2×1 cm full thickness wounds were created in the dorsal skin. Wound healing was monitored using cohorts of mice humanely killed at 3, 5, 7 and 14 days post-wounding. Re-epithelialization was quantified histologically, by measuring the distance between epithelial margins sectioned in the transverse plane (Ansell D. M. et al. (2014) Wound Rep Reg 22: 281-287).
Incisional wounding was carried out as we have previously detailed (Lees et al. (2013) The Journal of investigative dermatology 133, 1330-1339). Briefly, two full-thickness 1 cm incisions were created on the dorsal skin of 12 week old female mice and allowed to heal. RB-11 (10 μg per mouse), 4-hydroxytamoxifen (50 μg per mouse) or vehicle was applied in a total volume of 20 μl to the edge of each wound using a micropipette and allowed to absorb into the skin. At the appropriate time point (2, 5, 7, 14 and 21 days) following incisional wounding, mice were humanely killed and tissues harvested. From each mouse, one wound was completed excised and fixed in 4% formalin overnight at 4° C. Following fixation, the wound was carefully bisected at the middle across the wound, processed and embedded in paraffin for histological and immunofluorescence analysis. Wound widths were measured on scanned images of H&E stained sections using NDPView slide scanning and image quantification software. The remaining wound was bisected across the wound, snap-frozen and processed for gene expression analysis.
14-3-3ζ-deficient and wild-type mice were subjected to the incisional wounding protocol followed by treatment with vehicle or RB-11 (5× daily topical treatments of 11.5 μg). […] Slides were optically scanned using a Nanozoomer slide scanner (Hamamatsu, Japan) and the wound gap measured using Imagescope software (Leica Biosystems, Germany). Values were plotted on a box and whisker plot and statistical significant assessed using the Mann-Whitney test together with Dunnett's post hoc test.

[9] = test system: WT dermal fibroblasts; experiment: Collagen remodeling assay and cell morphology, wild-type dermal fibroblasts; assay type: cell-based, mice; details: 10 μM
Description: (§3) Rat-tail tendon collagen was prepared by extraction with 0.5 M acetic acid to a concentration of ˜2 mg/ml. 8×10^4 cells/ml WT or 14-3-3ζ KO dermal fibroblasts (labeled with either eGFP or mCherry) were embedded in this three-dimensional collagen 1 matrix and incubated in DMEM with 10% FCS and 10 mM L-Glutamine at 37° C. and 5% CO2. Detached polymerized matrix (2.5 ml) was allowed to contract for 11 days. During contraction, matrices were either left untreated or incubated with 10 μM RB-11. Media was changed on day 1 and on day 6. To calculate contraction rates and obtain information on cell morphology matrices were imaged every second day in phase contrast on a Leica DMIL LED inverted microscope with either a 4×/NA0.10 HI PLAN or a 10×/NA0.22 HI PLAN I air objective.
(§4) Measuring the mean diameter of three matrices and normalizing the diameter to day 1 determined contraction rates. Cell morphology was described by manually counting the number of cell protrusions/cell and the number of blebbing cells.
To determine the circularity of cells images were processed in ImageJ (NIH) according to following routine. Images were converted to 8 Bit images and cropped to an image size equivalent to […]. Grey values were thresholded to select cells. The ‘analyze particles’ function was used to determine circularity of cells. Circularity values range from 0 to 1 with ‘0’ representing rod-shaped cells and ‘1’ representing perfectly circular cells.
10^6 14-3-3ζ-deficient or wild-type dermal fibroblasts were embedded in 2 mg/mL % rat tail collagen plugs made with or without 10 μM RB-11. The plugs were maintained in DMEM containing 10% foetal bovine serum in a humidified incubator at 37° C. Collagen plugs were photographed on days 2, 6 and 12 and the area of the image occupied by the collage plug measured.

[10] = test system: 14-3-3ζ KO dermal fibroblasts; experiment: Collagen remodeling assay and cell morphology, 14-3-3ζ KO dermal fibroblasts; assay type: cell-based, mice; details: 10 μM
Description: as §3, §4
To determine the circularity of cells images were processed in ImageJ (NIH) according to following routine. […]
10^6 14-3-3ζ-deficient or wild-type dermal fibroblasts were embedded in 2 mg/mL % rat tail collagen plugs made with or without 10 μM RB-11. […] Collagen plugs were photographed on days 2, 6 and 12 and the area of the image occupied by the collage plug measured.

Structure (SMILES): CCCCCCCCCCCCCCCC[N+](C)(C)C.[Br-] [CTAB, cetyltrimethylammonium bromide]
- concentration above which 14-3-3 phosphorylation plateaus ([1]; dose-response study): above 25 μM
- concentrations able to induce 14-3-3 phosphorylation ([1]; dose-response study): low micromolar concentrations
- concentration above which phosphorylation of 14-3-3 increased dramatically ([1]; potentially non-specific protein denaturation): above 75 μM
- rendering 14-3-3 phosphorylatable (phosphorylation of 14-3-3 by PKA in vitro) ([1]; recombinant 14-3-3 and PKA catalytic subunit): dose-dependent increase in 14-3-3 phosphorylation
- phosphorylation site of 14-3-3ζ revealed [2]: Ser58
- caspase-3 activation ([3]; 5 μM, 20 hours): induce caspase-3 activation
- cell death in Bcl-2 over-expressing cells [4]: protected from CTAB-induced cell death
- critical micelle concentration [5]: 0.92 mM

Structure (SMILES): CCCCCCCCc1ccc(CC[N+]2(C)CCCC2)cc1 [RB-011]
- ED50 for apoptosis induction, in words [3]: low micromolar range
- Annexin V presentation ([3]; 5 μM, 24 hours): Annexin V presentation
- cell viability ([3]; 5 μM, 24 hours): loss of viability
- apoptosis as determined by caspase-3 activation ([3]; 5 μM, within 5 hours): readily able to activate apoptosis
- pEC50 ([3]; Homo sapiens, Jurkat, 5 h, read-out: ED50 for apoptosis induction (initial activation of caspase-3)): 5.70
- cell viability / growth and survival (MTS), in words [6]: inhibited
- pIC50 ([6]; Homo sapiens, A549): 5.15
- caspase-3 activation [7]: induce caspase activation
- rate of re-epithelialization ([8]; WT mice, topical 10 μg [25 nmol] once daily for 7 days): increased the rate of re-epithelialization
- collagen production around wound margins (SHG) ([8]; WT mice, topical 10 μg once daily for 7 days): elevated collagen production
- wound healing (wound width) ([8]; wild-type mice, 5× daily topical treatments of 11.5 μg, day 5 following wounding): hastened wound healing
- cell morphology by circularity analysis [9]: rounded morphology
- cell morphology in 3D collagen organotypic matrices (live-cell imaging) [9]: contracted morphology
- collagen remodeling ability (contraction of collagen plug/matrix) ([9]; listed as RB-11): unable to remodel the collagen plug; also recorded: significantly reduced collagen remodeling ability
- cell morphology by circularity analysis [10]: no further change in the morphology
- ability to remodel a collagen plug ([10]; compared to wild type fibroblasts): reduced ability to remodel a collagen plug

Reference: US10583115B2, “Modulators of 14-3-3 functionality and uses thereof” (University of South Australia, priority 2014, dated 2020)
